Laboratory results reported in article PMC11589101, “Profiling the endocrine-disrupting properties of triazines, triazoles, and short-chain PFAS” (Toxicological Sciences, 2024).
Read-outs that look alike come from different tables or passages of the source.

Assays:
[1] = system: steroidogenesis in H295R cells; assay type: cell-based, human; conditions: for 11 deoxycorticosterone mean fold change / 17aOH progesterone mean fold change / 17b E2 mean fold change / E1 mean fold change / androstenedione mean fold change / corticosterone mean fold change / cortisol mean fold change / testosterone mean fold change: H295R
Procedure: All experiments were performed using cells in passages 5 to 10. First, the highest noncytotoxic concentration (<10% decrease in viability) was determined for each compound with MTT assays. Next, the levels of 13 steroid hormones were determined in the medium after exposure of the H295R cells to the highest noncytotoxic concentration using LC-MS/MS. These concentrations were tested in triplicate (n = 3) in 3 independent experiments (N = 3), and all 9 samples were measured in LC-MS/MS. […] These dilution series were tested in 3 independent experiments (N = 3), with triplicate exposures in each of these experiments (n = 3). Supernatants of the triplicate exposures per experiment were pooled after the 48 h of exposure and the 3 pooled samples were measured with LC-MS/MS. This was done to keep the number of LC-MS/MS measurements manageable.
The exposure medium was prepared by diluting stock solutions 1,000× in the cell culture medium to obtain a final concentration of 0.1% of the solvent. Exposure was started by replacing cell culture medium with the exposure medium. […] On a separate quality control plate, cells were exposed to 10 μM forskolin (Sigma-Aldrich) and 1 μM prochloraz (Sigma-Aldrich) to serve as positive control for increased and decreased steroid hormone secretion, respectively. Exposure was started by replacing the culture medium in the cell culture plates with the exposure medium.
After 48 h of exposure, the supernatant medium from each well was transferred to the wells of a clean 48-well plate, and that plate was stored at −80 °C for later steroid measurement. MTT assays were performed by adding 500 μl of 0.5 mg/ml MTT (3-(4,5-dimethylthiazol-2-yl)-2,5-diphenyltetrazolium bromide; Sigma-Aldrich) solution in medium to each well of the 24-well cell culture plate and incubating for 1 h at 37 °C with 5% CO2. After incubation, the MTT solution was discarded and 500 μl of DMSO was added to each well to lyse the cells and dissolve the formazan crystals. Plates were shaken at 700 rpm for 10 min and absorbance was measured at 560 nm wavelength.
Hormones were concentrated from supernatants by solid phase extraction using Bond Elut Plexa cartridges, 30 mg sorbent, 1.8 ml (Agilent Technologies, Santa Clara, CA, United States). The cartridges were conditioned with 1 ml of 0.5% formic acid in methanol, and subsequent addition of 1 ml of 0.5% formic acid in water. A mix of 100 μl of H295R medium sample in 1 ml of 2% formic acid in water and 50 μl of isotopically labeled internal standards mix (Table S1) was loaded on the cartridges. These were then washed with 1 ml of water followed by 1 ml of water–methanol mixture (70:30, v/v). Cartridges were dried by vacuum and the hormones were eluted with 700 μl of methanol into 96-well-deep well polypropylene plates. Eluates were evaporated to dryness during approximately 2 h in a refrigerated CentriVap vacuum concentrator and reconstituted in 150 μl of water–methanol mixture (1:1, v/v). Additionally, a serial 12-point dilution series of a mix of native steroid hormones was prepared to fit a calibration curve in order to quantify steroid concentrations.
The steroid hormones were separated prior to MS measurements on a Kinetex C18 LC Column (2.6 μm, 100 × 2.1 mm; Phenomenex, CA, United States) coupled to an Exion LC system (SCIEX, Framingham, MA, United States). The mobile phase consisted of 0.2 mM NH4F in water and pure methanol and was delivered at a flow rate of 0.6 ml/min in a gradient elution mode. The injection volume was 10 μl.
The LC-MS/MS raw data were processed using AB Sciex OS Analyst version 1.6.2 (SCIEX, Framingham, MA, United States) to calculate fold changes by dividing the measured hormone concentrations by the hormone concentrations in the vehicle controls. The fold changes were used to fit a concentration–response curve in GraphPad Prism using the same model as in the reporter gene assays, and the ECIR1.5 was estimated for each compound.

[2] = molecular target: T1, human transthyretin (TTR) (Homo sapiens, UniProt P02766); test: FITC-T4 TTR-binding assay, initial (original) method
Procedure: (§1) All incubations were performed at room temperature.
(§2) Fluorescence enhancement was determined for each well by subtracting its relative fluorescence units (RFU) before TTR addition from its RFUs after TTR addition. The resulting values were normalized to percentages of the vehicle control. A concentration–response curve was fitted through the data using the same model as in the reporter gene assays.
After 15 min of incubation, fluorescence was measured and fluorescence enhancement was calculated by subtracting RFU without TTR from RFU with TTR. Further data analysis was similar to the screening assays.

[3] = molecular target: T1, human transthyretin (TTR); test: FITC-T4 TTR-binding assay, screening method
Procedure: as §1
In the screening tests, 48 μl of Tris-HCl buffer (pH 8.0) was added to each well of black low-binding 96-well plates. Two microliters of each test compound dissolved in their respective solvent was added to each well and the plate was shaken at 600 rpm for 5 min. […] Fluorescence was measured again to check for possible autofluorescence or quenching by the test compound.
as §2

[4] = initial method, 110 nM FITC-T4, 30 nM TTR
[5] = initial method, 110 nM FITC-T4, 30 nM TTR, read-out: IC50 competing with FITC-T4 for binding to TTR
[6] = screening method, read-out: IC50 TTR-binding assay, Screening Method

CCNc1nc(Cl)nc(NC(C)C)n1 [Atrazine]
11 deoxycorticosterone mean fold change ([1]; concentration 0.3 uM): 1.225 fold change | 17aOH progesterone mean fold change ([1]; concentration 0.3 uM): 1.062 fold change | 17b E2 mean fold change ([1]; concentration 0.3 uM): 1.11 fold change | E1 mean fold change ([1]; concentration 0.3 uM): 0.9324 fold change | androstenedione mean fold change ([1]; concentration 0.3 uM): 1.124 fold change | corticosterone mean fold change ([1]; concentration 0.3 uM): 1.264 fold change | cortisol mean fold change ([1]; concentration 0.3 uM): 1.18 fold change | testosterone mean fold change ([1]; concentration 0.3 uM): 1.092 fold change | 11 deoxycorticosterone mean fold change ([1]; concentration 1 uM): 1.279 fold change | 17aOH progesterone mean fold change ([1]; concentration 1 uM): 1.128 fold change | 17b E2 mean fold change ([1]; concentration 1 uM): 1.2477 fold change | E1 mean fold change ([1]; concentration 1 uM): 1.144 fold change | androstenedione mean fold change ([1]; concentration 1 uM): 1.188 fold change | corticosterone mean fold change ([1]; concentration 1 uM): 1.609 fold change | cortisol mean fold change ([1]; concentration 1 uM): 1.21 fold change | testosterone mean fold change ([1]; concentration 1 uM): 1.129 fold change | 11 deoxycorticosterone mean fold change ([1]; concentration 3 uM): 1.291 fold change | 17aOH progesterone mean fold change ([1]; concentration 3 uM): 1.151 fold change | 17b E2 mean fold change ([1]; concentration 3 uM): 1.487 fold change | E1 mean fold change ([1]; concentration 3 uM): 1.415 fold change | androstenedione mean fold change ([1]; concentration 3 uM): 1.193 fold change | corticosterone mean fold change ([1]; concentration 3 uM): 1.535 fold change | cortisol mean fold change ([1]; concentration 3 uM): 1.258 fold change | testosterone mean fold change ([1]; concentration 3 uM): 1.198 fold change | 11 deoxycorticosterone mean fold change ([1]; concentration 10 uM): 1.493 fold change | 17aOH progesterone mean fold change ([1]; concentration 10 uM): 1.43 fold change | 17b E2 mean fold change ([1]; concentration 10 uM): 2.183 fold change | E1 mean fold change ([1]; concentration 10 uM): 2.232 fold change | androstenedione mean fold change ([1]; concentration 10 uM): 1.47 fold change | corticosterone mean fold change ([1]; concentration 10 uM): 2.296 fold change | cortisol mean fold change ([1]; concentration 10 uM): 1.583 fold change | testosterone mean fold change ([1]; concentration 10 uM): 1.47 fold change | 11 deoxycorticosterone mean fold change ([1]; concentration 30 uM): 1.712 fold change | 17aOH progesterone mean fold change ([1]; concentration 30 uM): 1.877 fold change | 17b E2 mean fold change ([1]; concentration 30 uM): 2.732 fold change | E1 mean fold change ([1]; concentration 30 uM): 3.048 fold change | androstenedione mean fold change ([1]; concentration 30 uM): 1.542 fold change | corticosterone mean fold change ([1]; concentration 30 uM): 2.489 fold change | cortisol mean fold change ([1]; concentration 30 uM): 1.7 fold change | testosterone mean fold change ([1]; concentration 30 uM): 1.645 fold change | 11 deoxycorticosterone mean fold change ([1]; concentration 100 uM): 2.107 fold change | 17aOH progesterone mean fold change ([1]; concentration 100 uM): 2.139 fold change | 17b E2 mean fold change ([1]; concentration 100 uM): 2.968 fold change | E1 mean fold change ([1]; concentration 100 uM): 3.994 fold change | androstenedione mean fold change ([1]; concentration 100 uM): 1.612 fold change | corticosterone mean fold change ([1]; concentration 100 uM): 3.324 fold change | cortisol mean fold change ([1]; concentration 100 uM): 2.203 fold change | testosterone mean fold change ([1]; concentration 100 uM): 1.74 fold change | effect on steroid hormone levels compared with vehicle-treated controls ([1]; highest noncytotoxic exposure concentration, 48 h): increased levels of progestogens, androgens, estrogens, and corticosteroids

O=C(O)C(F)(OC(F)(F)C(F)(F)C(F)(F)F)C(F)(F)F (centres unmarked) [GenX, Hexafluoropropylene oxide dimer acid]
% FITCT4 bound to TTR ([2]; 0.1 uM): 92.2482% | % FITCT4 bound to TTR ([2]; 0.3 uM): 91.7718% | % FITCT4 bound to TTR ([2]; 1 uM): 89.1133% | % FITCT4 bound to TTR ([2]; 3 uM): 86.8896% | % FITCT4 bound to TTR ([2]; 10 uM): 74.6529% | % FITCT4 bound to TTR ([2]; 30 uM): 53.6966% | % FITCT4 bound to TTR ([2]; 100 uM): 24.7329% | IC10 competing with FITC-T4 for binding to TTR [2, 4]: 1.9 µM | IC50 [2, 5]: 31.9 µM | IC50 [3, 6]: 30.3 µM

O=S(=O)(O)C(F)(F)C(F)(F)C(F)(F)C(F)(F)C(F)(F)C(F)(F)F [PFHxS, Perfluorohexane sulfonic acid]
IC50 [2]: 0.27 µM | % FITCT4 bound to TTR ([2]; 0.1 uM): 74.2951% | % FITCT4 bound to TTR ([2]; 0.3 uM): 47.4669% | % FITCT4 bound to TTR ([2]; 1 uM): 17.2866% | % FITCT4 bound to TTR ([2]; 3 uM): 8.444% | % FITCT4 bound to TTR ([2]; 10 uM): 4.647% | % FITCT4 bound to TTR ([2]; 30 uM): 2.41% | % FITCT4 bound to TTR ([2]; 100 uM): 0.6647% | IC10 competing with FITC-T4 for binding to TTR [2, 4]: 0.034 µM | IC50 [3]: 0.24 µM

O=S(=O)(O)C(F)(F)C(F)(F)C(F)(F)C(F)(F)F [PFBS, Perfluorobutane sulfonic acid]
% FITCT4 bound to TTR ([2]; 0.1 uM): 97.3072% | % FITCT4 bound to TTR ([2]; 0.3 uM): 93.7406% | % FITCT4 bound to TTR ([2]; 1 uM): 89.6282% | % FITCT4 bound to TTR ([2]; 3 uM): 73.6529% | % FITCT4 bound to TTR ([2]; 10 uM): 44.4619% | % FITCT4 bound to TTR ([2]; 30 uM): 21.5802% | % FITCT4 bound to TTR ([2]; 100 uM): 11.5263% | IC10 competing with FITC-T4 for binding to TTR [2, 4]: 0.82 µM | IC50 [2, 5]: 8.3 µM | IC50 [3, 6]: 8.2 µM

O=C(O)C(F)(F)C(F)(F)C(F)(F)C(F)(F)C(F)(F)C(F)(F)C(F)(F)F [PFOA, Perfluorooactanoic acid]
% FITCT4 bound to TTR ([2]; 0.1 uM): 82.1607% | % FITCT4 bound to TTR ([2]; 0.3 uM): 45.526% | % FITCT4 bound to TTR ([2]; 1 uM): 17.6477% | % FITCT4 bound to TTR ([2]; 3 uM): 6.188% | % FITCT4 bound to TTR ([2]; 10 uM): 2.364% | % FITCT4 bound to TTR ([2]; 30 uM): 0.3274% | % FITCT4 bound to TTR ([2]; 100 uM): 0.2557% | IC10 competing with FITC-T4 for binding to TTR [2, 4]: 0.053 µM | IC50 [2, 5]: 0.28 µM | IC50 [3, 6]: 0.28 µM
